Test results reported in patent US20260014125A1, “BICYCLIC-TYPE MAT2A INHIBITOR AND USE THEREOF” (HAIHE BIOPHARMA CO., LTD., priority 2022, published 2026).

Biological target: MAT2A (Homo sapiens (Human), UniProt P31153)
Assay: Biochemical test: inhibition of MAT2A enzyme activity (phosphate detection, OD620)
Settings: MAT2A his-tag; 150 minutes enzymatic reaction
Description: Experimental principle: MAT2A can catalyze the conversion of L-methionine and ATP into SAM, inorganic phosphate, and inorganic diphosphate. By adding a chromogenic reagent to the enzymatic reaction system, the content of inorganic phosphates in a sample can be quantitatively detected, thereby characterizing the enzymatic activity of MAT2A.
Experimental material: Tris (Life Science #0497); BSA (Sigma #); MAT2A his-tag (BPS #71401-1); 384 well plate (Corning #3765); L-methionine (Admas #1100469); ATP (Sigma #A7699); MgCl2 (Sigma #M8266); KCl (Sigma #7447-40-7); Brij35 (Sigma #B4184); EDTA (Sigma #E1644)
1. 1×Assaybuffer (buffer composition: Tris, KCl, MgCl2, BSA, Brij35, and EDTA; the solvent was ultrapure water) was prepared. MAT2A his-tag enzyme solution (containing 1.3 μL of MAT2A enzyme and 998.7 μL of 1×Assaybuffer per 1000 μL) and substrate mixed solution (containing 5 μL of ATP, 1.3 μL of L-methionine, and 993.7 μL of 1×Assaybuffer per 1000 μL) were prepared using 1×AssayBuffer.
2. Preparation of compound concentration gradient: The test compound was tested with a starting concentration of 10 μM, and 10 equimolar concentrations were set according to a 3-fold dilution. Specifically, firstly, the compound was diluted into 10 different concentrations of series solutions in a 384 well plate (with final detection concentrations of 10, 3.33, 1.11, 0.37, 0.123, 0.041, 0.0137, 0.0046, 0.0015, and 0.0005 μM), and then 250 nL of the above series solutions was transferred to the 384 well reaction plate using an ultrasonic pipetting system Echo550 for later use. 250 nL of 100% DMSO was added into a negative control well and a positive control well, respectively. Double well test.
3. 15 μL of MAT2A his-tag enzyme solution was added into both the compound well and the positive control well; and 15 μL of 1×Assaybuffer was added into the negative control well.
4. The 384 well plate reaction plate was centrifuged at 1000 rpm for 60 seconds, shaken, mixed well, and incubated for 15 minutes. 10 μL of substrate mixed solution was added into each experimental well of the 384 well reaction plate to initiate the reaction.
5. The 384 well reaction plate was centrifuged at 1000 rpm for 60 seconds, shaken, mixed well, and incubated for 150 minutes.
6. 50 μL of enzyme reaction termination solution Biomol was added into all experimental wells of the 384 well reaction plate to terminate the reaction, centrifuged at 1000 rpm for 60 seconds, and incubated for 15 minutes. OD620 was read and data was processed.
Data analysis: the inhibition rate (%) of the compound was calculated and fitted to obtain the IC50 of the tested compound. Calculation method for compound inhibition rate: Compound inhibition rate (%)=(OD620_max−OD620_stample)/(OD620_max−OD620_min)×100, wherein OD620_stample was the absorbance value of the sample well; OD620 min was the absorbance value of the positive control well, indicating the reading of the wells without enzyme activity; and OD620_max was the absorbance value of the negative control well, indicating the reading of the well without compound inhibition.

Sequence of MAT2A (P31153 whole entry): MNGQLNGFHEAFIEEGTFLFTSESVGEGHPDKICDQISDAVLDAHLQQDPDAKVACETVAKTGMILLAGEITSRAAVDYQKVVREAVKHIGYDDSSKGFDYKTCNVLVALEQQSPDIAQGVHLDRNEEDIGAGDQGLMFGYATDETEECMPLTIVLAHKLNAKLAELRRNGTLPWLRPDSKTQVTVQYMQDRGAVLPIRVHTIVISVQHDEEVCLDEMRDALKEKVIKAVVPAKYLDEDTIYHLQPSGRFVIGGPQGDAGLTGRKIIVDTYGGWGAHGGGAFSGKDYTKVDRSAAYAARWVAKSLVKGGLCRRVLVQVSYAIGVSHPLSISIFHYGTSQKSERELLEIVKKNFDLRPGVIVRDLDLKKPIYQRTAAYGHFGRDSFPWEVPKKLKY

| Compound | IC50 |
| --- | --- |
| COc1ccc(-c2cc3cn[nH]c3n(-c3ccc4nn(C)cc4c3)c2=O)cc1 [Compound 1] | > 10 µM |
| CCNc1c(-c2ccc(OC)cc2)c(=O)n(-c2ccc3nn(C)cc3c2)c2[nH]ncc12 [Compound 2] | 0.0175 µM |
| CCOc1c(-c2ccc(OC)cc2)c(=O)n(-c2ccc3nn(C)cc3c2)c2[nH]ncc12 [Compound 3] | 0.0194 µM |
| CNc1c(-c2ccc(OC)cc2)c(=O)n(-c2ccc3nn(C)cc3c2)c2[nH]ncc12 [Compound 4] | 0.062 µM |
| COc1ccc(-c2c(NCC3CC3)c3cn[nH]c3n(-c3ccc4nn(C)cc4n3)c2=O)cc1 [Compound 5] | 0.0177 µM |
| CCNc1c(-c2ccc(OC)cc2)c(=O)n(-c2ccc(C#N)cc2)c2[nH]ncc12 [Compound 6] | 0.708 µM |
| CCNc1c(-c2ccc(OC)cc2)c(=O)n(-c2ccc(=O)n(C)c2)c2[nH]ncc12 [Compound 7] | 0.0353 µM |
| CCNc1c(-c2ccc(OC(F)F)cc2)c(=O)n(-c2ccc3nn(C)cc3c2)c2[nH]ncc12 [Compound 9] | 0.0153 µM |
| CCNc1c(-c2ccc(OC)cc2)c(=O)n(-c2ccc(OC)cc2)c2[nH]ncc12 [Compound 10] | 0.0206 µM |
| CCNc1c(-c2ccc(Cl)cc2)c(=O)n(-c2ccc3nn(C)cc3c2)c2[nH]ncc12 [Compound 11] | 0.0142 µM |
| CCNc1c(-c2ccc(Cl)cc2)c(=O)n(-c2ccc3c(c2)ncn3C)c2[nH]ncc12 [Compound 16] | > 10 µM |
| CCOc1c(-c2cccc(OC)c2)c(=O)n(-c2ccc3nn(C)cc3c2)c2[nH]ncc12 [Compound 18] | 0.0229 µM |
| CCOc1c(-c2ccc(OC(F)F)cc2)c(=O)n(-c2ccc3nn(C)cc3c2)c2c1cnn2C [Compound 31] | 0.12 µM |
| Cn1cnc2ccc(-n3c(=O)c(-c4ccc(OC(F)F)cc4)c(OCC4CC4)c4cn[nH]c43)cc21 [Compound 32] | 0.0146 µM |
| CCOc1c(-c2ccc(Cl)cc2)c(=O)n(-c2ccc3ncn(CC)c3c2)c2[nH]ncc12 [Compound 34] | 0.0221 µM |
| CCOc1c(-c2ccc(Cl)cc2)c(=O)n(-c2ccc3ncn(C4CNC4)c3c2)c2[nH]ncc12 [Compound 35] | 0.0608 µM |
| Cn1cc2cc(-n3c(=O)c(-c4ccc(OC(F)F)cc4)c(OCC4CC4)c4cn[nH]c43)ccc2n1 [Compound 39] | 0.015 µM |
| CCOc1c(-c2ccc(OC(F)F)cc2)c(=O)n(-c2cnc3nn(C)cc3c2)c2[nH]ncc12 [Compound 40] | 0.0558 µM |
| CCOc1c(-c2ccc(C)nc2)c(=O)n(-c2ccc3nn(C)cc3c2)c2[nH]ncc12 [Compound 48] | 0.0163 µM |
| CCOc1c(-c2ccc(Cl)cc2)c(=O)n(-c2ccc3nn(C)cc3c2)c2cn(C)nc12 [Compound 56] | 0.0244 µM |
| Cn1cc2cc(-n3c(=O)c(-c4ccc(Cl)cc4)c(OCCO)c4cn[nH]c43)ccc2n1 [Compound 59] | 0.0207 µM |
| COCCOc1c(-c2ccc(Cl)cc2)c(=O)n(-c2ccc3nn(C)cc3c2)c2[nH]ncc12 [Compound 60] | 0.0142 µM |
| CCOc1c(C2CCCCC2)c(=O)n(-c2ccc3nn(C)cc3c2)c2[nH]ncc12 [Compound 61] | 0.0142 µM |

| Compound | IC50 |
| --- | --- |
| CCN(C)c1c(-c2ccc(Cl)cc2)c(=O)n(-c2ccc3nn(C)cc3c2)c2[nH]ncc12 [Compound 64] | 0.0185 µM |
| CCOc1c(-c2ccc(C#N)cc2)c(=O)n(-c2ccc3nn(C)cc3c2)c2[nH]ncc12 [Compound 65] | 0.016 µM |
| CCOc1c(-c2ccc(Cl)cc2)c(=O)n(-c2ccc3nn(C)cc3c2)c2[nH]cnc12 [Compound 67] | 0.0178 µM |
| CCOc1c(-c2ccc(C)nc2)c(=O)n(-c2ccc3nn(C)cc3n2)c2[nH]ncc12 [Compound 86] | 0.0203 µM |
| CCOc1c(-c2ccc(C(F)(F)F)nc2)c(=O)n(-c2ccc3nn(C)cc3n2)c2[nH]ncc12 [Compound 87] | 0.0283 µM |
| Cc1ccc(-c2c(OCC(F)(F)F)c3cn[nH]c3n(-c3ccc4nn(C)cc4n3)c2=O)cn1 [Compound 89] | 0.016 µM |
| CCOc1c(-c2ccc(Cl)cc2)c(=O)n(-c2ccc3nn(C)cc3c2)c2cnn(C)c12 [Compound 100] | 0.0624 µM |
| CCOc1c(-c2ccc(C)nc2)c(=O)n(-c2ccc3nn(CC)cc3c2)c2[nH]ncc12 [Compound 101] | 0.0174 µM |
| CCCc1c(-c2ccc(Cl)cc2)c(=O)n(-c2ccc3nn(C)cc3c2)c2[nH]ncc12 [Compound 112] | 0.0183 µM |
| CCOc1c(-c2ccc(Cl)cc2)c(=O)n(-c2ccn3nccc3c2)c2[nH]ncc12 [Compound 114] | 0.0673 µM |
| CCOc1c(-c2ccc(Cl)cc2)c(=O)n(-c2ccn3nc(C)cc3n2)c2[nH]ncc12 [Compound 116] | 0.335 µM |
| CCOc1c(-c2ccc(Cl)cc2)c(=O)n(-c2ccc3nn(C)cc3n2)c2c1cnn2C [Compound 121] | 1.12 µM |
| CCOc1c(-c2ccc(Cl)cc2)c(=O)n(-c2ccc3nn(C)cc3c2)c2nn(CCO)cc12 [Compound 122] | 0.0277 µM |
| CCOc1c(-c2ccc(=O)[nH]c2)c(=O)n(-c2ccc3nn(C)cc3c2)c2[nH]ncc12 [Compound 125] | 0.0453 µM |
| CCSc1c(-c2ccc(Cl)cc2)c(=O)n(-c2ccc3nn(C)cc3c2)c2[nH]ncc12 [Compound 130] | 0.0112 µM |
| CCOc1c(-c2ccc(Cl)cc2)c(=O)n(-c2ccc3c(cnn3CCN(C)C)c2)c2[nH]ncc12 [Compound 131] | 0.0362 µM |
| CCOc1c(-c2ccc(C)cc2)c(=O)n(-c2ccc3nn(C)cc3n2)c2[nH]ncc12 [Compound 133] | 0.0274 µM |
| CCOc1c(-c2ccc(Cl)cc2)c(=O)n(-c2ccc3nn(C)nc3c2)c2nn(C)cc12 [Compound 136] | 0.0179 µM |
| CCOc1c(-c2ccc(Cl)cc2)c(=O)n(-c2ccc3nn(C)nc3n2)c2nn(C)cc12 [Compound 138] | 0.0507 µM |
| CCOc1c(-c2ccc(Cl)cc2)c(=O)n(-c2ccc3c(cnn3CCN(C)C)n2)c2[nH]ncc12 [Compound 139] | 0.376 µM |
| CCOc1c(-c2ccc(Cl)cc2)c(=O)n(-c2ccc3nnn(C)c3c2)c2nn(C)cc12 [Compound 140] | 0.013 µM |
| [2H]C([2H])([2H])C([2H])([2H])Oc1c(-c2ccc(Cl)cc2)c(=O)n(-c2ccc3nn(C)cc3c2)c2[nH]ncc12 [Compound 142] | 0.0103 µM |

Tested on: KP-4 cells
Assay: Human pancreatic cancer KP-4 cell activity inhibition test (CellTiter-Glo)
Format: cell-based
Settings: 5 days
Description: Experimental principle: after co-incubating the MAT2A inhibitor to be tested with KP-4 cells for a period of time, a cell viability measurement method based on ATP content is used to characterize the effect of the tested compound on cell viability.
Experimental material: KP-4 cells (JCRB #JCRB0182); IMDM (Gibco 912440061); fetal bovine serum (EXCELL #FND500); penicillin-streptomycin (Gibco #15140-122); 0.25% Typsin-EDTA (Gibco #252(101-072); DMSO (Sigma #D2650); 96 well plate (Corning #3610); CellTiter-Glo (Promega #G7571)
1. KP-4 cells were cultured in IMDM culture medium containing 10% e fetal bovine serum and 1% penicillin-streptomycin at 37° C. and 5% CO2 in a cell culture incubator. Only cells in logarithmic growth phase were used for subsequent experiments.
2. The cells in logarithmic growth phase were inoculated into a 96 well plate, with a seeding quantity of 500 cells per well, and incubated overnight in a cell culture incubator at 37′C and 5% CO2.
3. The compound was dissolved with DMSO, diluted with culture medium to 10 different concentrations (approximately […]), 3333.3, 1111.1, 370, 123, 41.2, 13.7, 4.6, 1.5, and 0.5 nM) before adding it to the cell plate, and cultured at 37° C. and 5% CO2 for 5 days.
4. CellTiter-Glo reagent was added, and an enzyme-linked immunosorbent assay reader was used to detect cell viability.
Data analysis: the inhibition rate (%) of the compound was calculated and fitted to obtain the IC50 of the tested compound. Calculation method for compound inhibition rate: Compound inhibition rate (%)=(Signal_max−Signal_sample)/(Signal_max−Signal_min)×100, wherein Signal_sample was the sample well reading, indicating the cell activity of the compound inhibition well; Signal_min was the positive control well reading, indicating the background activity without cells; and Signal_max was the negative control well reading, indicating the cell activity of the well without compound inhibition.

| Compound | IC50 |
| --- | --- |
| COc1ccc(-c2cc3cn[nH]c3n(-c3ccc4nn(C)cc4c3)c2=O)cc1 [Compound 1] | > 10 µM |

Same assay, conditions: Homo sapiens, 120 h, 5 days

| Compound | IC50 |
| --- | --- |
| CCNc1c(-c2ccc(OC)cc2)c(=O)n(-c2ccc3nn(C)cc3c2)c2[nH]ncc12 [Compound 2] | 0.0708 µM |
| CCOc1c(-c2ccc(OC)cc2)c(=O)n(-c2ccc3nn(C)cc3c2)c2[nH]ncc12 [Compound 3] | 0.064 µM |
| CNc1c(-c2ccc(OC)cc2)c(=O)n(-c2ccc3nn(C)cc3c2)c2[nH]ncc12 [Compound 4] | 0.028 µM |
| COc1ccc(-c2c(NCC3CC3)c3cn[nH]c3n(-c3ccc4nn(C)cc4n3)c2=O)cc1 [Compound 5] | 0.028 µM |
| CCNc1c(-c2ccc(OC)cc2)c(=O)n(-c2ccc(=O)n(C)c2)c2[nH]ncc12 [Compound 7] | > 10 µM |
| CCNc1c(-c2ccc(OC(F)F)cc2)c(=O)n(-c2ccc3nn(C)cc3c2)c2[nH]ncc12 [Compound 9] | 0.0247 µM |
| CCNc1c(-c2ccc(OC)cc2)c(=O)n(-c2ccc(OC)cc2)c2[nH]ncc12 [Compound 10] | 0.618 µM |
| CCNc1c(-c2ccc(Cl)cc2)c(=O)n(-c2ccc3nn(C)cc3c2)c2[nH]ncc12 [Compound 11] | 0.0049 µM |
| CCOc1c(-c2ccc(OC(F)F)cc2)c(=O)n(-c2ccc3nn(CCOC)cc3c2)c2[nH]ncc12 [Compound 21] | 0.0189 µM |
| CCOc1c(-c2ccc(OC(F)F)cc2)c(=O)n(-c2ccn3nccc3c2)c2[nH]ncc12 [Compound 23] | 0.0892 µM |
| CCOc1c(-c2ccc(OC(F)F)cc2)c(=O)n(-c2ccc3nccn3c2)c2[nH]ncc12 [Compound 24] | 0.256 µM |
| CCOc1c(-c2ccc(OC(F)F)cc2)c(=O)n(-c2ccc3ncnn3c2)c2[nH]ncc12 [Compound 25] | 0.274 µM |
